From ChEMBL document CHEMBL5331134, “Identification of Brain-Penetrant ATP-Competitive mTOR Inhibitors for CNS Syndromes” (J Med Chem, 2023)

Legend:
[1] = Drug concentration in C57BL/6 mouse plasma at 3 mg/kg, po measured after 24 hrs; assay type: ADME, organism-based
[2] = Drug concentration in C57BL/6 mouse brain at 10 mg/kg, po measured after 24 hrs; assay type: ADME, organism-based; conditions: read-out: Ct
[3] = Ratio of drug concentration in brain to plasma in C57BL/6 mouse at 3 mg/kg, po measured after 24 hrs; assay type: ADME, organism-based; conditions: read-out: BPR
[4] = Drug concentration in C57BL/6 mouse brain at 3 mg/kg, po measured after 1 hr; assay type: ADME, organism-based; conditions: read-out: Ct
[5] = Ratio of drug concentration in brain to plasma in C57BL/6 mouse at 1 mg/kg, po measured after 24 hrs; assay type: ADME, organism-based; conditions: read-out: BPR
[6] = Drug concentration in C57BL/6 mouse brain at 1 mg/kg, po measured after 8 hrs; assay type: ADME, organism-based; conditions: read-out: Ct
[7] = AUC(0 to t) in cynomolgus monkey at 0.1 mg/kg, iv measured upto 24 hrs by LC/MS/MS analysis; assay type: ADME, organism-based, Macaca fascicularis; design: dose 0.1 mg/kg, time < 24 hrs, route iv; conditions: in vivo
[8] = Drug concentration in C57BL/6 mouse brain at 1 mg/kg, po measured after 3 hrs; assay type: ADME, organism-based; conditions: read-out: Ct
[9] = Half life in cynomolgus monkey at 1 mg/kg, po and 0.1 mg/kg, iv measured upto 24 hrs by LC/MS/MS analysis; assay type: ADME, organism-based, Macaca fascicularis; conditions: in vivo
[10] = MRT(0 to t) in cynomolgus monkey at 1 mg/kg, po and 0.1 mg/kg, iv measured upto 24 hrs by LC/MS/MS analysis; assay type: ADME, organism-based, Macaca fascicularis; conditions: in vivo
[11] = Drug concentration in C57BL/6 mouse plasma at 10 mg/kg, po measured after 8 hrs; assay type: ADME, organism-based
[12] = Drug concentration in C57BL/6 mouse plasma at 3 mg/kg, po measured after 1 hr; assay type: ADME, organism-based
[13] = Ratio of drug concentration in brain to plasma in C57BL/6 mouse at 10 mg/kg, po measured at 24 hrs; assay type: ADME, organism-based; conditions: brain and plasma, read-out: BPR
[14] = In vivo inhibition of phosphorylation of AKT at serine 473 residues in C57BL/6 mouse brain at 10 mg/kg, po measured after 8 hrs by Western blotting analysis; assay type: organism-based
[15] = Drug concentration in C57BL/6 mouse plasma at 30 mg/kg, po measured after 8 hrs; assay type: ADME, organism-based
[16] = Drug concentration in C57BL/6 mouse plasma at 1 mg/kg, po measured after 24 hrs; assay type: ADME, organism-based
[17] = Tmax in cynomolgus monkey at 1 mg/kg, po and 0.1 mg/kg, iv measured upto 24 hrs by LC/MS/MS analysis; assay type: ADME, organism-based, Macaca fascicularis; conditions: in vivo
[18] = Cmax in cynomolgus monkey at 1 mg/kg, po measured upto 24 hrs by LC/MS/MS analysis; assay type: ADME, organism-based, Macaca fascicularis; design: time < 24 hrs, dose 1 mg/kg, route po; conditions: in vivo
[19] = Ratio of drug concentration in brain to plasma in C57BL/6 mouse at 30 mg/kg, po measured at 8 hrs; assay type: ADME, organism-based; conditions: read-out: BPR
[20] = Ratio of drug concentration in brain to plasma in C57BL/6 mouse at 10 mg/kg, po measured at 8 hrs; assay type: ADME, organism-based; conditions: read-out: BPR
[21] = Drug concentration in C57BL/6 mouse brain at 3 mg/kg, po measured after 8 hrs; assay type: ADME, organism-based; conditions: read-out: Ct
[22] = Drug concentration in C57BL/6 mouse brain at 3 mg/kg, po measured after 24 hrs; assay type: ADME, organism-based; conditions: read-out: Ct
[23] = Drug concentration in C57BL/6 mouse brain at 30 mg/kg, po measured after 8 hrs; assay type: ADME, organism-based; conditions: read-out: Ct
[24] = In vivo inhibition of phosphorylation of S6 at serine 240/244 residues in C57BL/6 mouse brain at 30 mg/kg, po measured after 24 hrs by Western blotting analysis; assay type: organism-based
[25] = Bioavailability in cynomolgus monkey at 1 mg/kg, po and 0.1 mg/kg, iv measured upto 24 hrs by LC/MS/MS analysis; assay type: ADME, organism-based, Macaca fascicularis; conditions: in vivo
[26] = Drug concentration in C57BL/6 mouse brain at 10 mg/kg, po measured after 8 hrs; assay type: ADME, organism-based; conditions: read-out: Ct
[27] = Drug concentration in C57BL/6 mouse plasma at 1 mg/kg, po measured after 1 hr; assay type: ADME, organism-based
[28] = Drug concentration in C57BL/6 mouse plasma at 1 mg/kg, po measured after 8 hrs; assay type: ADME, organism-based
[29] = Drug concentration in C57BL/6 mouse plasma at 1 mg/kg, po measured after 3 hrs; assay type: ADME, organism-based
[30] = Drug concentration in C57BL/6 mouse plasma at 3 mg/kg, po measured after 8 hrs; assay type: ADME, organism-based
[31] = Volume of distribution at steady state in cynomolgus monkey at 1 mg/kg, po and 0.1 mg/kg, iv measured upto 24 hrs by LC/MS/MS analysis; assay type: ADME, organism-based, Macaca fascicularis; conditions: in vivo
[32] = AUC(0 to t) in cynomolgus monkey at 1 mg/kg, po measured upto 24 hrs by LC/MS/MS analysis; assay type: ADME, organism-based, Macaca fascicularis; design: time < 24 hrs, dose 1 mg/kg, route po; conditions: in vivo
[33] = In vivo inhibition of phosphorylation of AKT at serine 473 residues in C57BL/6 mouse brain at 30 mg/kg, po measured after 24 hrs by Western blotting analysis; assay type: organism-based
[34] = Ratio of drug concentration in brain to plasma in C57BL/6 mouse at 3 mg/kg, po measured at 3 hrs; assay type: ADME, organism-based; conditions: read-out: BPR
[35] = Tmax in Beagle dog at 1 mg/kg, po and 0.3 mg/kg, iv measured upto 24 hrs by LC/MS/MS analysis; assay type: ADME, organism-based, Canis lupus familiaris; conditions: in vivo
[36] = Phototoxicity against mouse BALB/3T3 clone A31 cells assessed as photo-irradiation factor incubated for 1 hr followed by irradiated with 5 J/cm^2 of light dose measured after 24 hrs by neutral red uptake assay; assay type: toxicity, cell-based; conditions: balb/3t3 clone a31, 1 h
[37] = Bioavailability in Beagle dog at 1 mg/kg, po and 0.3 mg/kg, iv measured upto 24 hrs by LC/MS/MS analysis; assay type: ADME, organism-based, Canis lupus familiaris; conditions: in vivo
[38] = Volume of distribution at steady state in Beagle dog at 1 mg/kg, po and 0.3 mg/kg, iv measured upto 24 hrs by LC/MS/MS analysis; assay type: ADME, organism-based, Canis lupus familiaris; conditions: in vivo
[39] = In vivo inhibition of phosphorylation of AKT at serine 473 residues in C57BL/6 mouse brain at 10 to 30 mg/kg, po measured after 3 hrs by Western blotting analysis; assay type: organism-based; conditions: dose 10-30 mg/kg
[40] = Half life in Beagle dog at 1 mg/kg, po and 0.3 mg/kg, iv measured upto 24 hrs by LC/MS/MS analysis; assay type: ADME, organism-based, Canis lupus familiaris; conditions: in vivo
[41] = MRT(0 to t) in Beagle dog at 1 mg/kg, po and 0.3 mg/kg, iv measured upto 24 hrs by LC/MS/MS analysis; assay type: ADME, organism-based, Canis lupus familiaris; conditions: in vivo
[42] = In vivo inhibition of phosphorylation of AKT at serine 473 residues in C57BL/6 mouse brain at 10 to 30 mg/kg, po measured after 24 hrs by Western blotting analysis; assay type: organism-based; conditions: dose 10-30 mg/kg
[43] = Cmax in cynomolgus monkey at 0.3 mg/kg, po measured upto 24 hrs by LC/MS/MS analysis; assay type: ADME, organism-based, Macaca fascicularis; design: dose 0.3 mg/kg, time < 24 hrs, route po; conditions: in vivo
[44] = In vivo inhibition of phosphorylation of S6 at serine 240/244 residues in C57BL/6 mouse brain at 10 to 30 mg/kg, po measured after 1 to 3 hrs by Western blotting analysis; assay type: organism-based; conditions: dose lower 10 mg/kg, time lower 1 hrs, dose upper 30 mg/kg, time upper 3 hrs

C[C@@H]1COCCN1c1cc(N2CCOC[C@@H]2C)nc2[nH]c(-c3cscn3)nc12
concentration at 24 h [1]: 6 nM | concentration at 24 h [2]: 130 nM | Kp at 24 h [3]: 0.84 | concentration at 1 h [4]: 1400 nM | Kp at 24 h [5]: 1.91 | concentration at 8 h [6]: 90 nM | AUC(0-t) at 24 h [7]: 0.34 µM·h | concentration at 3 h [8]: 240 nM | half-life [9]: 5 h | MRT last at 24 h [10]: 4.2 h | concentration at 8 h [11]: 406 nM | concentration at 1 h [12]: 2750 nM | Kp at 24 h [13]: 0.62 | inhibition (INH) [14]: Active | concentration at 8 h [15]: 632 nM | concentration at 24 h [16]: 4 nM | Tmax [17]: 1.2 h | Cmax [18]: 468 nM | Kp at 8 h [19]: 0.73 | Kp at 8 h [20]: 0.57 | concentration at 8 h [21]: 341 nM | concentration at 24 h [22]: 5 nM | concentration at 8 h [23]: 462 nM | inhibition (INH) [24]: Active | bioavailability [25]: 110% | concentration at 8 h [26]: 230 nM | concentration at 1 h [27]: 766 nM | concentration at 8 h [28]: 246 nM | concentration at 3 h [29]: 674 nM | concentration at 8 h [30]: 1190 nM | Vdss [31]: 3 L/kg | AUC(0-t) at 24 h [32]: 3.75 µM·h | inhibition (INH) [33]: Active | Kp at 3 h [34]: 0.45

C[C@@H]1COCCN1c1cc(N2CCOC[C@@H]2C)nc2[nH]c(-c3ccccn3)nc12
Tmax [35]: 0.8 h | Activity [36]: 1 | bioavailability [37]: 11% | Vdss [38]: 4.3 L/kg | inhibition (INH) [39]: Active | half-life [40]: 1.9 h | MRT last at 24 h [41]: 0.9 h | inhibition (INH) [42]: Not Active | Cmax [43]: 13 nM | inhibition (INH) [44]: Active
